One assay concerns Z-138 cells. Description: Z-138 cell growth inhibition test (CellTiter-Glo, 5 days). The note with it: Homo sapiens, incubated 5 days (120 h). It counts as cell-based. How it is done: The cells were routinely subcultured. After approximately two passages, well-growing cell strains were selected for plating.
• I. The suspension was removed from the incubator, transferred into a 50 mL centrifuge tube, and then centrifuged at 800-1000 rpm for 3-5 min, and the supernatant was discarded. An appropriate volume of culture medium was added to the centrifuge tube, and the cells were gently pipetted to ensure a uniform suspension. Cell counting was performed using the Vi-Cell XR cell counter. • II. Based on the measured cell density, the cell suspension was adjusted to an appropriate concentration. • III. The cell suspension was added to a 384-well plate at a volume of 40 µL/well, with 700 cells/well. For blank control wells, an equal volume of cell-free culture medium was added instead.
• I. The compound was dissolved in 100% DMSO to prepare a 10 mM stock solution. • II. […]
The assay was performed according to the instructions of the Promega CellTiter-Glo luminescent cell viability assay kit (Promega-G7573): • I. The CellTiter-Glo buffer was thawed and let stand at room temperature. • II. […] The luminescence signals were detected on 2104 EnVision plate reader. […]
The dose-response inhibition curve was plotted using XLFit, and IC50 values were calculated using the four-parameter logistic model: [fit = (A + ((B - A)/(1 + ((C/x) ^ D))))].
For orientation: Cellular ATP, detected with luciferase, serves as a proxy for viable cell number.

Another assay deals with T1, PRMT5 (Homo sapiens, UniProt O14744).
T1 construct: purchased Active Motif 31921
T1 sequence (O14744 whole entry): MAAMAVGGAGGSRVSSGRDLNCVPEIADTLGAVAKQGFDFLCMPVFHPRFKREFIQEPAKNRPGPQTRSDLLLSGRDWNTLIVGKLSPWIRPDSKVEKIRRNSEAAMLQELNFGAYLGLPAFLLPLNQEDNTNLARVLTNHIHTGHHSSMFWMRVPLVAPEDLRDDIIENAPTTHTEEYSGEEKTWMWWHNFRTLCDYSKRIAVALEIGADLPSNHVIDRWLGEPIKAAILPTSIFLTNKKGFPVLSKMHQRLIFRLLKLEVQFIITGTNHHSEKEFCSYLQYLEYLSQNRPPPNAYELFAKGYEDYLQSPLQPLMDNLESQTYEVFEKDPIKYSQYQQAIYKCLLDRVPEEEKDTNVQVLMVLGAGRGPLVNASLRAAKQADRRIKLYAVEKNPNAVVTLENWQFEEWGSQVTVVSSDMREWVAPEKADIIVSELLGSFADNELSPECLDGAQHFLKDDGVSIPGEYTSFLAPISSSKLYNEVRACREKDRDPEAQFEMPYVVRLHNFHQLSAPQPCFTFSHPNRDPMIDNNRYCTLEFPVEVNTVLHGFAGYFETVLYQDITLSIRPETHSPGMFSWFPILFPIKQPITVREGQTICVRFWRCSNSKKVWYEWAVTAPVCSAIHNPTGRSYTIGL
T1 sequence (Q9BQA1 whole entry partner): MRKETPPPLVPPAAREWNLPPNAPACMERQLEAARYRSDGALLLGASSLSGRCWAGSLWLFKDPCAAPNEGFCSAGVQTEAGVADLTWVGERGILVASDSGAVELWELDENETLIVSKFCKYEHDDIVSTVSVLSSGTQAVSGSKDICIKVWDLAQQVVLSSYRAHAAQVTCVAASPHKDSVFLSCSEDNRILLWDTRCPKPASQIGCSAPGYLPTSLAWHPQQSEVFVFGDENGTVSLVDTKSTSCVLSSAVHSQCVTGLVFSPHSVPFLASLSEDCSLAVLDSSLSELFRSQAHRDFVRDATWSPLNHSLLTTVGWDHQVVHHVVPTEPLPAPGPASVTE
Description: PRMT5 enzymatic activity inhibition test ([3H]-SAM FlashPlate). The conditions noted are these: for IC50: 5 nM PRMT5, 0.3 µM [3H]-SAM, 100 nM polypeptide substrate. It counts as biochemical. Here is the method: A 1× enzyme reaction buffer was prepared using 10 mM Tris 8.0 (Sigma, Cat. No. T2694-1L), 0.01% Tween-20 (Sigma, Cat. No. P2287-100ML), and 1 mM DTT (Sigma, Cat. No. D0632-10G). […] Subsequently, the concentration (X) and corresponding inhibition rate (Inh%) (Y) were input into EXCEL. The XLFit plug-in was then used to fit the data using the built-in four-parameter logistic equation: Y = Bottom + (Top - Bottom)/(1 + (IC50/X) […]). The IC50 (half-maximal inhibitory concentration) value for each compound was then calculated.

Assay [1] concerns human origin B-cell non-Hodgkin's lymphoma Z-138 cell strain. The assay can be described thus: Subcutaneous Z-138 xenograft in mice. It counts as in vivo. The note with it: subcutaneous xenograft in female NOD/SCID mice.

Molecules are shown by their SMILES.

As to `CC(C)Oc1nc(NC2CCN(C(=O)c3ccccc3)CC2)cc(C(=O)N2CC[C@@H](N3CCc4ccccc4C3)[C@H](O)C2)n1` [Example 1, (6-((1-benzoylpiperidin-4-yl)amino)-2-isopropoxypyrimidin-4-yl)((3R,4R)-4-(3,4-dihydroisoquinolin-2(1H)-yl)-3-hydroxypiperidin-1-yl)methanone], the IC50 (as a rule, the concentration at which inhibition is half-maximal) amounted to 46.6 nM in the assay with Z-138 cells and 6.4 nM on PRMT5. Moreover, the “inhibitory activity against the enzymatic activity” value at PRMT5 (in vitro, statement in words) is reported as “strong inhibitory effects”. Further, the tumor inhibition effects result in assay [1] is listed as “excellent tumor inhibition effects”.
On to `CC(=O)N1CCC(Nc2cc(C(=O)N3CCC(N4CCc5ccccc5C4)CC3)nc(C)n2)CC1` [reference compound, reference compound], for which the values for the IC50 with Z-138 cells and at PRMT5 were 2710 nM and 115 nM, respectively.

The values are drawn from patent EP4631939A1, “SALT AND CRYSTAL FORM OF ANTI-TUMOR HETEROCYCLIC COMPOUND” (CSPC Zhongqi Pharmaceutical Technology (Shijiazhuang) Co., …, priority 2022, dated 2024).
